Reference: US20250134874A1, “PHARMACEUTICAL FORMULATIONS COMPRISING 3-({[(4R)-7-{METHYL[4-(PROPAN-2-YL)PHENYL]AMINO}-3,4-DIHYDRO-2H-1-BENZOPYRAN-4-YL]METHYL}AMINO)PYRIDINE-4-CARBOXYLIC ACID” (TACHYON THERAPEUTICS, INC., priority 2021, published 2025)

System: 301 cancer cell lines from different tumor types (OncoPanel; HD Biosciences)
Test: 2D cell viability inhibition assay (CellTiter-Glo) in cancer cell line panel
Type: cell-based
Conditions: Homo sapiens
Description: In a larger screening study, compound 1 was evaluated across a broad cancer cell line panel (OncoPanel; HD Biosciences) composed of 301 cancer cell lines from different tumor types.
2D cell viability inhibition assays were performed in multiwell plates seeded with cells from the panel. After seeding, the plates were cultured overnight in a humidified incubator at 37° C. to promote adherence. Assays were initiated in individual wells by adding either DMSO as a vehicle control, growth media as a blank, or serially diluted compound 1 (10 μM to 0.0005 μM with 1:3 serial dilution). Cultures were incubated for 168 hours after which the number of viable cells in each test well was assessed using the CellTiter-Glo® Luminescent Cell Viability Assay. Luminescence readouts were performed using an EnVision® Multilabel Reader and the compound 1 readouts were normalized to the DMSO control readouts, expressed as a percent of the control. Outliers were flagged out by visual inspection. Percent of control was plotted against the corresponding compound 1 concentration and the absolute IC50 value was determined using four-parameter logistic non-linear regression as the concentration where inhibition was 50% of the control. For maximum inhibition <50%, the absolute IC50 was reported as >10. In addition to EC50 and IC50, AUC was determined and was normalized to the area corresponding to theoretical no-inhibition (the rectangular area defined by the compound dose range and 0 to 100 in y). Emax was recorded as the minimum in y with the compound dose range. For those cell lines where Emax>40, EC50 was manually set to 10 μM. A hierarchical clustering algorithm based on Euclidean distance between the standardized input values and “Ward.D” method as implemented in R hclust function was used to visualize the compound 1 cellular potency data. The sensitive/moderate/resistant calls for each cell line was determined by visually inspecting the resulting clustering dendrogram. All the analyses were done in R Core Team.

[1] = Detroit 562, DETROIT562 cell line
[2] = Granta-519, GRANTA519 cell line
[3] = KARPAS-422, KARPAS422 cell line

Work on `CC(C)c1ccc(N(C)c2ccc3c(c2)OCC[C@H]3CNc2cnccc2C(=O)O)cc1` [Compound 1, 3-({[(4R)-7-{methyl[4-(propan-2-yl)phenyl]amino}-3,4-dihydro-2H-1-benzopyran-4-yl]methyl}amino)pyridine-4-carboxylic acid] yielded an IC50 (Calu-6, CALU6 cell line) of 0.0149 µM, an EC50 (Caov-3, CAOV3 cell line) of 0.00525 µM and an IC50 (Caov-3, CAOV3 cell line) of 0.00647 µM. For the same compound, the IC50 (Capan-2, 168 h, CAPAN2, pancreas, ductal carcinoma, 168 hours) was over 10 µM, the EC50 (DLD-1, DLD1 cell line) was 0.00147 µM and the IC50 (DLD-1, DLD1 cell line) was 0.00253 µM. The IC50 (DMS-53, 168 h, DMS53, lung, small cell carcinoma, 168 hours) was over 10 µM, the EC50 (DMS-79, DMS79 cell line) was 0.00128 µM and the IC50 (DMS-79, DMS79 cell line) was 0.00347 µM. The IC50 (DMS-153, DMS153 cell line) was over 10 µM, the EC50 (DMS-273, DMS273 cell line) was 0.0163 µM and the IC50 (DMS-273, DMS273 cell line) was 0.0222 µM. It also gave an EC50 (DU-145, DU145 cell line) of 0.0166 µM, an IC50 (DU-145, DU145 cell line) of 0.0177 µM and an EC50 (DV-90, DV90 cell line) of 0.00536 µM. It also gave an IC50 (DV-90, DV90 cell line) of 0.00736 µM, an IC50 (Daoy, 168 h, central nervous system, NS) of over 10 µM and an EC50 (Daudi, DAUDI cell line) of 0.0134 µM. It also gave an IC50 (Daudi, DAUDI cell line) of 0.0149 µM, an EC50 [1] of 0.0104 µM and an IC50 [1] of 0.0167 µM. It also gave an EC50 (FTC-133, FTC133 cell line) of 0.00428 µM, an IC50 (FTC-133, FTC133 cell line) of 0.00749 µM and an IC50 (G-361, 168 h, G361, skin, NS, 168 hours) of over 10 µM. For the same compound, the EC50 (G-401, G401 cell line) was 0.00439 µM, the IC50 (G-401, G401 cell line) was 0.00445 µM and the EC50 (GI-1, GI1 cell line) was 0.295 µM. It also gave an IC50 (GI-1, GI1 cell line) of 0.287 µM, an EC50 [2] of 0.0149 µM and an IC50 [2] of 0.0176 µM. It also gave an IC50 (HCC38, 168 h, HCC38, breast, ductal carcinoma, 168 hours) of over 10 µM, an EC50 (HCC70, HCC70 cell line) of 0.00856 µM and an IC50 (HCC70, HCC70 cell line) of 0.011 µM. For the same compound, the EC50 (HCC78, HCC78 cell line) was 0.0127 µM, the IC50 (HCC78, HCC78 cell line) was 0.0239 µM and the EC50 (HCC95, HCC95 cell line) was 0.00334 µM. The IC50 (HCC95, HCC95 cell line) was 0.0044 µM, the IC50 (HCC827, 168 h, HCC827, lung, adenocarcinoma, 168 hours) was over 10 µM and the IC50 (HCC1143, HCC1143 cell line) was over 10 µM. The EC50 (HCC1187, HCC1187 cell line) was 0.0031 µM, the IC50 (HCC1187, HCC1187 cell line) was 0.00651 µM and the IC50 (HCC1419, 168 h, HCC1419, breast, ductal carcinoma, 168 hours) was over 10 µM. It also gave an IC50 (HCC1428, 168 h, HCC1428, breast, NS, 168 hours) of over 10 µM, an EC50 (HCC1599, HCC1599 cell line) of 0.00382 µM and an IC50 (HCC1599, HCC1599 cell line) of 0.00564 µM. The EC50 (HCC1806, HCC1806 cell line) was 0.00513 µM, the IC50 (HCC1806, HCC1806 cell line) was 0.013 µM and the IC50 (HCC1937, 168 h, HCC1937, breast, ductal carcinoma, 168 hours) was over 10 µM. For the same compound, the IC50 (HCC1954, HCC1954 cell line) was 0.0406 µM, the IC50 (HCC2935, HCC2935 cell line) was over 10 µM and the EC50 (HCT-15, HCT15 cell line) was 0.00147 µM. The IC50 (HCT-15, HCT15 cell line) was 0.00179 µM, the EC50 (HCT-116, HCT116 cell line) was 0.00499 µM and the IC50 (HCT-116, HCT116 cell line) was 0.0204 µM. The EC50 (HEL, HEL cell line) was 0.0036 µM, the IC50 (HEL, HEL cell line) was 0.0117 µM and the EC50 (HL-60, HL60 cell line) was 0.00812 µM. The IC50 (HL-60, HL60 cell line) was 0.00932 µM, the EC50 (HLE, HLE cell line) was 0.0104 µM and the IC50 (HLE, HLE cell line) was 0.0113 µM. The EC50 (HMCB, HMCB cell line) was 0.000815 µM, the IC50 (HMCB, HMCB cell line) was 0.0111 µM and the EC50 (HPAC, HPAC cell line) was 0.00238 µM. For the same compound, the IC50 (HPAC, HPAC cell line) was 0.00393 µM, the EC50 (HSC-2, HSC2 cell line) was 0.00509 µM and the IC50 (HSC-2, HSC2 cell line) was 0.00799 µM. For the same compound, the IC50 (HSC-3, HSC3 cell line) was 0.0603 µM, the EC50 (HSC-4, HSC4 cell line) was 0.00433 µM and the IC50 (HSC-4, HSC4 cell line) was 0.00695 µM. For the same compound, the EC50 (HT55, HT55 cell line) was 0.0127 µM, the IC50 (HT55, HT55 cell line) was 0.0142 µM and the EC50 (HT-29, HT29 cell line) was 0.0228 µM. The IC50 (HT-29, HT29 cell line) was 0.037 µM, the IC50 (HT-144, 168 h, HT144, skin, NS, 168 hours) was over 10 µM and the EC50 (HT-1080, HT1080 cell line) was 0.0128 µM. For the same compound, the IC50 (HT-1080, HT1080 cell line) was 0.0141 µM, the EC50 (HT-1376, HT1376 cell line) was 0.0179 µM and the IC50 (HT-1376, HT1376 cell line) was 0.0363 µM. It also gave an EC50 (HepG2, HEPG2 cell line) of at least 10 µM, an IC50 (HepG2, HEPG2 cell line) of 0.0521 µM and an EC50 (Hs 294T, HS294T cell line) of 0.0307 µM. The IC50 (Hs 294T, HS294T cell line) was 0.0668 µM, the IC50 (Hs 695T, 168 h, HS695T, skin, NS) was over 10 µM and the EC50 (Hs-578T, HS578T cell line) was 0.0069 µM. For the same compound, the IC50 (Hs-578T, HS578T cell line) was 0.0139 µM, the EC50 (HuH-1, HUH1 cell line) was 0.0106 µM and the IC50 (HuH-1, HUH1 cell line) was 0.0118 µM. The EC50 (HuTu80, HUTU80 cell line) was 0.00421 µM, the IC50 (HuTu80, HUTU80 cell line) was 0.00436 µM and the EC50 (Huh-7, HUH7 cell line) was 0.0129 µM. The IC50 (Huh-7, HUH7 cell line) was 0.014 µM, the IC50 (J82, J82 cell line) was over 10 µM and the EC50 (JIMT-1, JIMT1 cell line) was 0.0466 µM. It also gave an IC50 (JIMT-1, JIMT1 cell line) of 0.0619 µM, an EC50 (JeKo-1, JEKO1 cell line) of 0.00231 µM and an IC50 (JeKo-1, JEKO1 cell line) of 0.0018 µM. For the same compound, the EC50 (Jurkat, JURKAT cell line) was 0.00166 µM, the IC50 (Jurkat, JURKAT cell line) was 0.00149 µM and the EC50 (K562, K562 cell line) was 0.00408 µM. It also gave an IC50 (K562, K562 cell line) of 0.00456 µM, an IC50 (KALS-1, KALS1 cell line) of over 10 µM and an EC50 [3] of 0.00543 µM. It also gave an IC50 [3] of 0.00653 µM, an EC50 (KATO III, KATOIII cell line) of 0.0404 µM and an IC50 (KATO III, KATOIII cell line) of 0.0438 µM. It also gave an EC50 (KM12, KM12 cell line) of 0.0063 µM, an IC50 (KM12, KM12 cell line) of 0.00734 µM and an EC50 (KMS-11, KMS11 cell line) of 0.0109 µM. It also gave an IC50 (KMS-11, KMS11 cell line) of 0.0122 µM, an EC50 (KNS-62, KNS62 cell line) of 0.0124 µM and an IC50 (KNS-62, KNS62 cell line) of 0.0149 µM. The EC50 (KU-19-19, KU1919 cell line) was 0.00877 µM and the IC50 (KU-19-19, KU1919 cell line) was 0.0103 µM.
